# Reference: patent US11440914B2, “Tricyclic amine compounds as CDK2 inhibitors” (Incyte Corporation, priority 2019, dated 2022)
# Molecular target: CDK2/Cyclin E1 (Homo sapiens (Human), UniProt P24941)
# Experiment: CDK2/Cyclin E1 HTRF enzyme activity assay
# Assay type: biochemical
# Conditions: 1 mM ATP
# Procedure: CDK2/Cyclin E1 enzyme activity assays utilize full-length human CDK2 co-expressed as N-terminal GST-tagged protein with FLAG-Cyclin E1 in a baculovirus expression system (Carna Product Number 04-165). Assays are conducted in white 384-well polystyrene plates in a final reaction volume of 8 μL. CDK2/Cyclin E1 (0.25 nM) is incubated with compounds (40 nL serially diluted in DMSO) in the presence of ATP (50 μM or 1 mM) and 50 nM ULight™-labeled eIF4E-binding protein 1 (THR37/46) peptide (PerkinElmer) in assay buffer (containing 50 mM HEPES pH 7.5, 1 mM EGTA, 10 mM MgCl2, 2 mM DTT, 0.05 mg/ml BSA, and 0.01% Tween 20) for 60 minutes at room temperature. The reactions are stopped by the addition of EDTA and Europium-labeled anti-phospho-4E-BP1 antibody (PerkinElmer), for a final concentration of 15 mM and 1.5 nM, respectively. HTRF signals are read after 1 hour at room temperature on a PHERAstar FS plate reader (BMG Labtech). Data is analyzed with IDBS XLFit and GraphPad Prism 5.0 software using a three or four parameter dose response curve to determine IC50 for each compound.
row,IC50,Compound
1,≤ 0.05 µM,"CC(C)c1nc2c(n1C)-c1nc(NC3CCN(S(C)(=O)=O)CC3)ncc1CC2 [Example 18, 2-Isopropyl-1-methyl-N-(1-(methylsulfonyl)piperidin-4-yl)-4,5-dihydro-1H-imidazo[4,5-h]quinazolin-8-amine]"
2,≤ 0.05 µM,"Cc1nc2c(n1C1CC1)-c1nc(NC3CCN(S(C)(=O)=O)CC3)ncc1CC2 [Example 19, 1-Cyclopropyl-2-methyl-N-(1-(methylsulfonyl)piperidin-4-yl)-4,5-dihydro-1H-imidazo[4,5-h]quinazolin-8-amine]"
3,≤ 0.05 µM,"CS(=O)(=O)N1CCC(Nc2ncc3c(n2)-c2c(ncn2C2CC2)CC3)CC1 [Example 20, 1-Cyclopropyl-N-(1-(methylsulfonyl)piperidin-4-yl)-4,5-dihydro-1H-imidazo[4,5-h]quinazolin-8-amine]"
4,≤ 0.05 µM,"CS(=O)(=O)N1CCC(Nc2ncc3c(n2)-c2c(nc(Br)n2C2CC2)CC3)CC1 [Example 21, 2-Bromo-1-cyclopropyl-N-(1-(methylsulfonyl)piperidin-4-yl)-4,5-dihydro-1H-imidazo[4,5-h]quinazolin-8-amine]"
5,≤ 0.05 µM,"CS(=O)(=O)N1CCC(Nc2ncc3c(n2)-c2c(nc(-c4ccccc4)n2C2CC2)CC3)CC1 [Example 22, 1-Cyclopropyl-N-(1-(methylsulfonyl)piperidin-4-yl)-2-phenyl-4,5-dihydro-1H-imidazo[4,5-h]quinazolin-8-amine]"
6,≤ 0.05 µM,"CS(=O)(=O)N1CCC(Nc2ncc3c(n2)-c2c(nc(-c4ccccc4F)n2C2CC2)CC3)CC1 [Example 23, 1-Cyclopropyl-2-(2-fluorophenyl)-N-(1-(methylsulfonyl)piperidin-4-yl)-4,5-dihydro-1H-imidazo[4,5-h]quinazolin-8-amine]"
7,≤ 0.05 µM,"Cc1nn(C)cc1-c1nc2c(n1C1CC1)-c1nc(NC3CCN(S(C)(=O)=O)CC3)ncc1CC2 [Example 24, 1-Cyclopropyl-2-(1,3-dimethyl-1H-pyrazol-4-yl)-N-(1-(methylsulfonyl)piperidin-4-yl)-4,5-dihydro-1H-imidazo[4,5-h]quinazolin-8-amine]"
8,≤ 0.05 µM,"Cc1nc2c(n1C1CC1)-c1nc(NC3CCN(S(C)(=O)=O)CC3)ncc1CC2(C)C [Example 25, 1-Cyclopropyl-2,4,4-trimethyl-N-(1-(methylsulfonyl)piperidin-4-yl)-4,5-dihydro-1H-imidazo[4,5-h]quinazolin-8-amine]"
9,≤ 0.05 µM,"CS(=O)(=O)N1CCC(Nc2ncc3c(n2)-c2c(ncn2C2CC2)CO3)CC1 [Example 26, 1-Cyclopropyl-N-(1-(methylsulfonyl)piperidin-4-yl)-1,4-dihydroimidazo[4′,5′:4,5]pyrano[3,2-d]pyrimidin-8-amine]"
10,≤ 0.05 µM,"Cc1nc2c(n1C(C)C)-c1nc(NC3CCN(S(C)(=O)=O)CC3)ncc1CC2 [Example 27, 1-Isopropyl-2-methyl-N-(1-(methylsulfonyl)piperidin-4-yl)-4,5-dihydro-1H-imidazo[4,5-h]quinazolin-8-amine]"
11,≤ 0.05 µM,"Cc1nc2c(n1C)-c1nc(N[C@H]3CCN(S(=O)(=O)c4cn(C)cn4)C[C@H]3C)ncc1CC2 [Example 28, 1,2-Dimethyl-N-((3R,4S)-3-methyl-1-((1-methyl-1H-imidazol-4-yl)sulfonyl)piperidin-4-yl)-4,5-dihydro-1H-imidazo[4,5-h]quinazolin-8-amine]"
12,≤ 0.05 µM,"Cc1nc2c(n1C)-c1nc(N[C@H]3CCN(S(=O)(=O)c4cccc(N5CCN(C)CC5)n4)C[C@H]3C)ncc1CC2 [Example 29, 1,2-Dimethyl-N-((3R,4S)-3-methyl-1-((6-(4-methylpiperazin-1-yl)pyridin-2-yl)sulfonyl)piperidin-4-yl)-4,5-dihydro-1H-imidazo[4,5-h]quinazolin-8-amine]"
13,≤ 0.05 µM,"Cc1nc2c(n1C)-c1nc(N[C@H]3CCN(S(=O)(=O)c4ccc(N5CC[C@@H](O)C5)nc4)C[C@H]3C)ncc1CC2 [Example 30, (R)-1-(5-(((3R,4S)-4-((1,2-Dimethyl-4,5-dihydro-1H-imidazo[4,5-h]quinazolin-8-yl)amino)-3-methylpiperidin-1-yl)sulfonyl)pyridin-2-yl)pyrrolidin-3-ol]"
14,≤ 0.05 µM,"Cc1nc2c(n1C1CC1)-c1nc(N[C@H]3CCN(S(=O)(=O)c4cn(C)cn4)C[C@H]3C)ncc1CC2 [Example 31, 1-Cyclopropyl-2-methyl-N-((3R,4S)-3-methyl-1-((1-methyl-1H-imidazol-4-yl)sulfonyl)piperidin-4-yl)-4,5-dihydro-1H-imidazo[4,5-h]quinazolin-8-amine]"

# The next lines start with the compound.
row,Compound,IC50
1,"CCS(=O)(=O)N1CCC(Nc2ncc3c(n2)-c2c(nc(C)n2C)CC3)CC1 [Example 1, N-(1-(Ethylsulfonyl)piperidin-4-yl)-1,2-dimethyl-4,5-dihydro-1H-imidazo[4,5-h]quinazolin-8-amine]",≤ 0.05 µM
2,"Cc1nc2c(n1C)-c1nc(NC3CCN(S(=O)(=O)C4CC4)CC3)ncc1CC2 [Example 2, N-(1-(Cyclopropylsulfonyl)piperidin-4-yl)-1,2-dimethyl-4,5-dihydro-1H-imidazo[4,5-h]quinazolin-8-amine]",≤ 0.05 µM
3,"Cc1nc2c(n1C)-c1nc(NC3CCN(S(=O)(=O)c4cnn(C)c4)CC3)ncc1CC2 [Example 3, 1,2-Dimethyl-N-(1-((1-methyl-1H-pyrazol-4-yl)sulfonyl)piperidin-4-yl)-4,5-dihydro-1H-imidazo[4,5-h]quinazolin-8-amine]",≤ 0.05 µM
4,"Cc1nc2c(n1C)-c1nc(NC3CCN(S(=O)(=O)c4cn[nH]c4)CC3)ncc1CC2 [Example 4, N-(1-((1H-Pyrazol-4-yl)sulfonyl)piperidin-4-yl)-1,2-dimethyl-4,5-dihydro-1H-imidazo[4,5-h]quinazolin-8-amine]",≤ 0.05 µM
5,"Cc1nc2c(n1C)-c1nc(NC3CCN(S(=O)(=O)c4cccc(C#N)c4)CC3)ncc1CC2 [Example 5, 3-((4-((1,2-Dimethyl-4,5-dihydro-1H-imidazo[4,5-h]quinazolin-8-yl)amino)piperidin-1-yl)sulfonyl)benzonitrile]",≤ 0.05 µM
6,"Cc1nc(S(=O)(=O)N2CCC(Nc3ncc4c(n3)-c3c(nc(C)n3C)CC4)CC2)cn1C [Example 6, N-(1-((1,2-Dimethyl-1H-imidazol-4-yl)sulfonyl)piperidin-4-yl)-1,2-dimethyl-4,5-dihydro-1H-imidazo[4,5-h]quinazolin-8-amine]",≤ 0.05 µM
7,"Cc1nc2c([nH]1)-c1nc(NC3CCN(S(C)(=O)=O)CC3)ncc1CC2 [Example 7, 2-Methyl-N-(1-(methylsulfonyl)piperidin-4-yl)-4,5-dihydro-1H-imidazo[4,5-h]quinazolin-8-amine]",0.05 to 0.2 µM
8,"Cc1nc2c(n1Cc1ccccc1)-c1nc(NC3CCN(S(C)(=O)=O)CC3)ncc1CC2 [Example 8, 1-Benzyl-2-methyl-N-(1-(methylsulfonyl)piperidin-4-yl)-4,5-dihydro-1H-imidazo[4,5-h]quinazolin-8-amine]",≤ 0.05 µM
9,"Cn1cc2c(n1)CCc1cnc(NC3CCN(S(C)(=O)=O)CC3)nc1-2 [Example 9, 8-Methyl-N-(1-(methylsulfonyl)piperidin-4-yl)-6,8-dihydro-5H-pyrazolo[3,4-h]quinazolin-2-amine]",0.05 to 0.2 µM
10,"Cn1cc2c(n1)COc1cnc(NC3CCN(S(C)(=O)=O)CC3)nc1-2 [Example 10, 8-Methyl-N-(1-(methylsulfonyl)piperidin-4-yl)-6,8-dihydropyrazolo[4′,3′:4,5]pyrano[3,2-d]pyrimidin-2-amine]",0.2 to 0.5 µM
11,"Cc1c2c(nn1-c1c(F)cccc1F)CCc1cnc(NC3CCN(S(C)(=O)=O)CC3)nc1-2 [Example 11, 8-(2,6-Difluorophenyl)-9-methyl-N-(1-(methylsulfonyl)piperidin-4-yl)-6,8-dihydro-5H-pyrazolo[3,4-h]quinazolin-2-amine]",≤ 0.05 µM
12,"Cn1nc2c(c1C1CC1)-c1nc(NC3CCN(S(C)(=O)=O)CC3)ncc1CC2 [Example 12, 9-Cyclopropyl-8-methyl-N-(1-(methylsulfonyl)piperidin-4-yl)-6,8-dihydro-5H-pyrazolo[3,4-h]quinazolin-2-amine]",≤ 0.05 µM
13,"CC(C)c1c2c(nn1C)CCc1cnc(NC3CCN(S(C)(=O)=O)CC3)nc1-2 [Example 13, 9-Isopropyl-8-methyl-N-(1-(methylsulfonyl)piperidin-4-yl)-6,8-dihydro-5H-pyrazolo[3,4-h]quinazolin-2-amine]",≤ 0.05 µM
14,"CS(=O)(=O)N1CCC(Nc2ncc3c(n2)-c2c(nn(C4CCOC4)c2C2CC2)CC3)CC1 (stereo not shown) [Example 14, 9-Cyclopropyl-N-(1-(methylsulfonyl)piperidin-4-yl)-8-(tetrahydrofuran-3-yl)-6,8-dihydro-5H-pyrazolo[3,4-h]quinazolin-2-amine]",≤ 0.05 µM
15,"CS(=O)(=O)N1CCC(Nc2ncc3c(n2)-c2c(nn(CCO)c2C2CC2)CC3)CC1 [Example 15, 2-(9-Cyclopropyl-2-((1-(methylsulfonyl)piperidin-4-yl)amino)-5,6-dihydro-8H-pyrazolo[3,4-h]quinazolin-8-yl)ethan-1-ol]",≤ 0.05 µM
16,"CS(=O)(=O)N1CCC(Nc2ncc3c(n2)-c2c(nn(C4CC4)c2C2CC2)CC3)CC1 [Example 16, 8,9-Dicyclopropyl-N-(1-(methylsulfonyl)piperidin-4-yl)-6,8-dihydro-5H-pyrazolo[3,4-h]quinazolin-2-amine]",≤ 0.05 µM
17,"Cc1nc2c(n1C)-c1nc(NC3CCN(S(C)(=O)=O)CC3)ncc1CC2 [Example 17, 1,2-Dimethyl-N-(1-(methylsulfonyl)piperidin-4-yl)-4,5-dihydro-1H-imidazo[4,5-h]quinazolin-8-amine]",≤ 0.05 µM
